According to patent US20030206972A1, “Compositions containing carotenoids and tocotrienols and having synergistic antioxidant effect” (priority 2000, published 2003):
Several values for one entry are separate records, joined by “and”; a condition that tells them apart may be missing. Equal entries are not always repeated.

Assay: Peroxy radical scavenging activity (BODIPY 581/591 C11 fluorescence, AMVN radical generator, microplate); synergy by CalcuSyn median-effect method
Assay type: biochemical
Details: test material alone, 50 percent inhibition of peroxy radical formation, parenthetic values 95% confidence intervals
Method: As a peroxy radical generator, 2,2′-azobis-2,4-dimethyl valeronitrile (AMVN) was used and obtained from WAKO Chemicals (Richmond, Va.). All standards were of the highest purity commercially available. Additionally, the solvents were of HPLC grade.
Fluorescence measurements were performed using a Packard FluoroCount microplate fluorometer equipped with a temperature-controlled plate holder. All measurements were preformed in a 96-well polypropylene plate with stirring.
Reactions in octane:butyronitrile (9:1, v/v) were carried out at 30° C. All fluorescence measurements were recorded every 15 minutes for 1 hour at excitation wavelengths of 570 nm, with emission at 620 nm. The net protection (area under the curve, AUC) provided by an antioxidant sample was calculated using the trapezoid method. […] The percent inhibition of each dose was calculated as:
[AUC(dose)−AUC(AMVN)]/[AUC(BODIPY)−AUC(AMVN)]×100.
Stock solutions of the test samples were made up in chloroform and 6 μL were added to the reaction mixture to achieve the stated concentrations. The reaction was initiated by the addition of the AMVN and fluorometric readings were recorded every 15 minutes for one hour.
Synergy between astaxanthin and the sample of mixed tocotrienols was assessed using CalcuSyn (BIOSOFT, biosoft.com).
Cm is determined from the x-intercept of the median-effect plot. The fraction affected by the concentration of the test material is fa and the fraction unaffected by the concentration is fu (fu=1−fa). The exponent m is the parameter signifying the sigmoidicity or shape of the dose-effect curve. It is estimated by the slope of the median-effect plot.
The median-effect plot is a plot of x=log(C) vs y=log(fa/fu) and is based on the logarithmic form of Chou's median-effect equation. The goodness of fit for the data to the median-effect equation is represented by the linear correlation coefficient r of the median-effect plot. Usually, the experimental data from enzyme or receptor systems have an r>0.96, from tissue culture an r>0.90 and from animal systems an r>0.85.
Synergy of test components is quantified using the combination index (CI) parameter. […] The equation determines only the additive effect rather than synergism or antagonism.
Dose-response curves were described with each test article separately and then in a two-way combination.

IC50 (listed as astaxanthin)	Compound	IC50
	CC1=C[C@H](O)CC(C)(C)[C@H]1/C=C/C(C)=C/C=C/C(C)=C/C=C/C=C(C)/C=C/C=C(C)/C=C/C1=C(C)C[C@@H](O)CC1(C)C [Lutein, lutein]	38 (29-50) μg/mL
	CC1=C(/C=C/C(C)=C/C=C/C(C)=C/C=C/C=C(C)/C=C/C=C(C)/C=C/C2=C(C)CCCC2(C)C)C(C)(C)CCC1 [β-Carotene, β-carotene]	196 (171-226) μg/mL and 135 (85-215) μg/mL
196 µg/mL and 195 µg/mL	CC1=C(/C=C/C(C)=C/C=C/C(C)=C/C=C/C=C(C)/C=C/C=C(C)/C=C/C2=C(C)C(=O)[C@@H](O)CC2(C)C)C(C)(C)C[C@H](O)C1=O [Astaxanthin, 3,3′-dihydroxy-β,β-carotene-4,4′-dieto-β-carotene]	150 (115-194) μg/mL and 182 (145-227) μg/mL
